Assay results published in the supplement of paper PMC10307832.

Experiments:
Assay in all cases: relative viability (nuclei count vs DMSO), 5 days (fraction); higher = more cells survive
201T = test system: 201T
Outline: (§1)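 Relative viability divides the nuclei count in treated wells by that in vehicle wells. Lung cancer cell lines were seeded in 1536-well plates, dosed by pin tool the next day, and fixed and stained after 5 days in one step with final 0.05% Triton X-100, 1% formaldehyde and 1 ug/ml Hoechst. Dosing was a single drug or a fixed anchor-drug dose plus five library-drug doses (not always all listed) in √10 steps, and values are medians of duplicate plates imaged at 4×.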

BEN = test system: BEN
Outline: as §1

CAL-12T = test system: CAL-12T
Outline: as §1

HCC-44 = test system: HCC-44
Outline: as §1

HCC-827 = test system: HCC-827
Outline: as §1

HOP-62 = test system: HOP-62
Outline: as §1

LCLC-103H = test system: LCLC-103H
Outline: as §1

LCLC-97TM1 = test system: LCLC-97TM1
Outline: as §1

LXF-289 = test system: LXF-289
Outline: as §1

NCI-H1395 = test system: NCI-H1395
Outline: as §1

NCI-H1437 = test system: NCI-H1437
Outline: as §1

## CC1(C)CCC(c2ccc(Cl)cc2)=C(CN2CCN(c3ccc(C(=O)NS(=O)(=O)c4ccc(N[C@H](CCN5CCOCC5)CSc5ccccc5)c(S(=O)(=O)C(F)(F)F)c4)cc3)CC2)C1 [Navitoclax] + O=C(c1cc(Cc2n[nH]c(=O)c3ccccc23)ccc1F)N1CCN(C(=O)C2CC2)CC1 [Olaparib] (partner 8 µM)
201T; first compound 0.005 µM
  relative viability: 0.829
201T; first compound 0.01581 µM
  relative viability: 0.871
201T; first compound 0.05 µM
  relative viability: 0.806
201T; first compound 0.1581 µM
  relative viability: 0.832
201T; first compound 0.5 µM
  relative viability: 0.85
BEN; first compound 0.005 µM
  relative viability: 1.07
BEN; first compound 0.01581 µM
  relative viability: 1.06
BEN; first compound 0.05 µM
  relative viability: 0.862
BEN; first compound 0.1581 µM
  relative viability: 1.05
BEN; first compound 0.5 µM
  relative viability: 0.595
CAL-12T; first compound 0.005 µM
  relative viability: 0.715
CAL-12T; first compound 0.01581 µM
  relative viability: 0.651
CAL-12T; first compound 0.05 µM
  relative viability: 0.674
CAL-12T; first compound 0.1581 µM
  relative viability: 0.75
CAL-12T; first compound 0.5 µM
  relative viability: 0.791
HCC-44; first compound 0.005 µM
  relative viability: 0.971
HCC-44; first compound 0.01581 µM
  relative viability: 0.98
HCC-44; first compound 0.05 µM
  relative viability: 0.887
HCC-44; first compound 0.1581 µM
  relative viability: 0.943
HCC-44; first compound 0.5 µM
  relative viability: 0.932
HCC-827; first compound 0.005 µM
  relative viability: 0.714
HCC-827; first compound 0.01581 µM
  relative viability: 0.669
HCC-827; first compound 0.05 µM
  relative viability: 0.531
HCC-827; first compound 0.1581 µM
  relative viability: 0.638
HCC-827; first compound 0.5 µM
  relative viability: 0.632
HOP-62; first compound 0.005 µM
  relative viability: 0.211
HOP-62; first compound 0.01581 µM
  relative viability: 0.434
HOP-62; first compound 0.05 µM
  relative viability: 0.507
HOP-62; first compound 0.1581 µM
  relative viability: 0.473
HOP-62; first compound 0.5 µM
  relative viability: 0.432
LCLC-103H; first compound 0.005 µM
  relative viability: 0.715
LCLC-103H; first compound 0.01581 µM
  relative viability: 0.817
LCLC-103H; first compound 0.05 µM
  relative viability: 0.729
LCLC-103H; first compound 0.1581 µM
  relative viability: 0.738
LCLC-103H; first compound 0.5 µM
  relative viability: 0.705
LCLC-97TM1; first compound 0.005 µM
  relative viability: 0.34
LCLC-97TM1; first compound 0.01581 µM
  relative viability: 0.599
LCLC-97TM1; first compound 0.05 µM
  relative viability: 0.243
LCLC-97TM1; first compound 0.1581 µM
  relative viability: 0.409
LCLC-97TM1; first compound 0.5 µM
  relative viability: 0.445
LXF-289; first compound 0.005 µM
  relative viability: 1.01
LXF-289; first compound 0.01581 µM
  relative viability: 1.12
LXF-289; first compound 0.05 µM
  relative viability: 0.88
LXF-289; first compound 0.1581 µM
  relative viability: 0.888
LXF-289; first compound 0.5 µM
  relative viability: 1.08
NCI-H1395; first compound 0.005 µM
  relative viability: 0.456
NCI-H1395; first compound 0.01581 µM
  relative viability: 0.495
NCI-H1395; first compound 0.05 µM
  relative viability: 0.441
NCI-H1395; first compound 0.1581 µM
  relative viability: 0.428
NCI-H1395; first compound 0.5 µM
  relative viability: 0.473
NCI-H1437; first compound 0.005 µM
  relative viability: 0.619
NCI-H1437; first compound 0.01581 µM
  relative viability: 0.659
NCI-H1437; first compound 0.05 µM
  relative viability: 0.655
NCI-H1437; first compound 0.1581 µM
  relative viability: 0.629
NCI-H1437; first compound 0.5 µM
  relative viability: 0.656
